According to patent publication US11192877B2, “3-(5-hydroxy-1-oxoisoindolin-2-yl)piperidine-2,6-dione derivatives and uses thereof” (Novartis AG, priority 2018, dated 2021):
Like-named read-outs stand apart in the source and are kept apart here.

Biological target: IKZF2 (Helios) (Homo sapiens, UniProt Q96SW2+Q9UKS7)
Test: Prolabel quantification of IKZF2 protein levels in 293GT cells
Type: cell-based
Conditions: 24 h, read-out: IKZF2 % protein reduction at 10 μM, 24 h
[1] = Pro-label assay, 293GT cells, 10 μM

Sequence of IKZF2 (Helios) (Q9UKS7 whole entry): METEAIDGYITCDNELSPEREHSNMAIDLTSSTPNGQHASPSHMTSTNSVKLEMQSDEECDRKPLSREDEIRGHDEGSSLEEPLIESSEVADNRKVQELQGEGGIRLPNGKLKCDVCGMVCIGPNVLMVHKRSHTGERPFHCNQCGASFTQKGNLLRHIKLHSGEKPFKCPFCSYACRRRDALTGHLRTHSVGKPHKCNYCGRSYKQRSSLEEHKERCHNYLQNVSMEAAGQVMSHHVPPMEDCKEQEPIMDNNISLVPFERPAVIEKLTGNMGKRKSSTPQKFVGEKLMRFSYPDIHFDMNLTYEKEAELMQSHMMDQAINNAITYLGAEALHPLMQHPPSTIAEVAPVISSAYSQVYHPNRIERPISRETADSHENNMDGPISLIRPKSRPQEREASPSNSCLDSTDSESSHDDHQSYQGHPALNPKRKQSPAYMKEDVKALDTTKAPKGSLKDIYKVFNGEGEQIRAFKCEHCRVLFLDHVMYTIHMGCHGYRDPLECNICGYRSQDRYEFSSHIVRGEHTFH
Sequence of IKZF2 (Helios) (Q96SW2 whole entry): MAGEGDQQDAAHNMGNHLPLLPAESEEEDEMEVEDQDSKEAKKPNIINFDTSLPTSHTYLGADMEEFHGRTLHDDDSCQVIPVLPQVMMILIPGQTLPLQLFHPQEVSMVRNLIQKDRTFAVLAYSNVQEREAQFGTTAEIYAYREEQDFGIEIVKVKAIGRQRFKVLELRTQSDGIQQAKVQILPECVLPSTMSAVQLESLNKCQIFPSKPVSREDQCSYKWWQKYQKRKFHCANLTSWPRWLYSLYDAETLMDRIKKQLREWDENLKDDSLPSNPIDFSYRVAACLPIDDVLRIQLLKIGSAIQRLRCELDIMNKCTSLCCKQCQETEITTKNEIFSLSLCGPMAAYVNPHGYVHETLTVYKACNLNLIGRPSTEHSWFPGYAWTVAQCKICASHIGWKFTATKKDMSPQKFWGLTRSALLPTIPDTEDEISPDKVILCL
Sequence of IKZF2 (Helios) (Q16531 whole entry partner): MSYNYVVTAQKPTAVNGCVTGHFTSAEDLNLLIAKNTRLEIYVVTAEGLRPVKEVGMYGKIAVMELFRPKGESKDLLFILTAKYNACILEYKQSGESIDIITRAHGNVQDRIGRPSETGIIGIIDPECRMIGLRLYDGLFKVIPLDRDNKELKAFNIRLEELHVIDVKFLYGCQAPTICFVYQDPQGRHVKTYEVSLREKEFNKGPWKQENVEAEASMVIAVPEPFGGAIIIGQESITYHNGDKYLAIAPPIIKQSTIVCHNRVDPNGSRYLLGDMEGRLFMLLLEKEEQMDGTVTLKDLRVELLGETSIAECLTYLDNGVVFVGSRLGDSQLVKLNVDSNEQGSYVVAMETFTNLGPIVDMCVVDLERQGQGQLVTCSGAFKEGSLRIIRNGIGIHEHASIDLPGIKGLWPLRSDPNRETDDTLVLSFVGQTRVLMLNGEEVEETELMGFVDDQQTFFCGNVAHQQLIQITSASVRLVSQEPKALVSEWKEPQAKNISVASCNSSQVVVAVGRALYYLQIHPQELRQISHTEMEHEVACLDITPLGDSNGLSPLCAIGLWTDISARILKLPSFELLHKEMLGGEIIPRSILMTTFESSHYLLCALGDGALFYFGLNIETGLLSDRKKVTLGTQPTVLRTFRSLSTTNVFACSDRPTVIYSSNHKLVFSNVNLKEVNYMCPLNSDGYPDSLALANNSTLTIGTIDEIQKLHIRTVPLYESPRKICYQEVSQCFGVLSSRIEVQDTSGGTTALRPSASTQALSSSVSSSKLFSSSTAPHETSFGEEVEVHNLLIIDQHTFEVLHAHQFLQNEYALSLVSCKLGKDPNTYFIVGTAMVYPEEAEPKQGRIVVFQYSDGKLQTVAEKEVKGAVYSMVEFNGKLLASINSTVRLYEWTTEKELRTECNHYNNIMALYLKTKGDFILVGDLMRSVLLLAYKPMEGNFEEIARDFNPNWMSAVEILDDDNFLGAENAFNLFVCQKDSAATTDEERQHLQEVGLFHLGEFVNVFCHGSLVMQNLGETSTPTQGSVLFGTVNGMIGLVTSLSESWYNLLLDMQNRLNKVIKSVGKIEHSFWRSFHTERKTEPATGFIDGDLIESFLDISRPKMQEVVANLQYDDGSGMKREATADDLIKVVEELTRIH

Row | Structure (SMILES) | IKZF2 % protein reduction at 10 µM [1] [%] | IKZF2 % protein reduction at 10 µM [%]
1 | O=C1CCC(N2Cc3cc(O[C@H]4CCCC[C@@H]4N4CC(OCC5CC5)C4)ccc3C2=O)C(=O)N1 (stereo partly drawn) [I-51, 3-(5-(((1S,2S)-2-(3-(cyclopropylmethoxy)azetidin-1-yl)cyclohexyl)oxy)-1-oxoisoindolin-2-yl)piperidine-2,6-dione] | 90 | 
2 | O=C1CCC(N2Cc3cc(O[C@H]4CCC[C@@H]4N4CC(OCc5ccccc5)C4)ccc3C2=O)C(=O)N1 (stereo partly drawn) [I-52, 3-(5-(((1S,2S)-2-(3-(benzyloxy)azetidin-1-yl)cyclopentyl)oxy)-1-oxoisoindolin-2-yl)piperidine-2,6-dione] | 89 | 
3 | CC(C)OC1CN([C@H]2CCCC[C@@H]2Oc2ccc3c(c2)CN(C2CCC(=O)NC2=O)C3=O)C1 (stereo partly drawn) [I-53, 3-(5-(((1S,2S)-2-(3-isopropoxyazetidin-1-yl)cyclohexyl)oxy)-1-oxoisoindolin-2-yl)piperidine-2,6-dione] | 88 | 
4 | O=C1CCC(N2Cc3cc(O[C@H]4CCCC[C@@H]4N4CC(OCc5ccccc5)C4)ccc3C2=O)C(=O)N1 (stereo partly drawn) [I-54, 3-(5-(((1S,2S)-2-(3-(benzyloxy)azetidin-1-yl)cyclohexyl)oxy)-1-oxoisoindolin-2-yl)piperidine-2,6-dione] | 91 | 
5 | CCOC1CN([C@H]2CCCCC[C@@H]2Oc2ccc3c(c2)CN(C2CCC(=O)NC2=O)C3=O)C1 (stereo partly drawn) [I-55, 3-(5-(((1S,2S)-2-(3-ethoxyazetidin-1-yl)cycloheptyl)oxy)-1-oxoisoindolin-2-yl)piperidine-2,6-dione] | 91 | 
6 | O=C1CCC(N2Cc3cc(O[C@H]4CCCC[C@@H]4N4CC(OC5CC(F)(F)C5)C4)ccc3C2=O)C(=O)N1 (stereo partly drawn) [I-56, 3-(5-(((1S,2S)-2-(3-(3,3-difluorocyclobutoxy)azetidin-1-yl)cyclohexyl)oxy)-1-oxoisoindolin-2-yl)piperidine-2,6-dione] | 91 | 
7 | CCN[C@H]1CCCCC[C@@H]1Oc1ccc2c(c1)CN(C1CCC(=O)NC1=O)C2=O (stereo partly drawn) [I-57, 3-(5-(((1S,2S)-2-(ethylamino)cycloheptyl)oxy)-1-oxoisoindolin-2-yl)piperidine-2,6-dione] |  | 80
8 | O=C1CCC(N2Cc3cc(O[C@H]4CCCCC[C@@H]4NCc4ccccc4)ccc3C2=O)C(=O)N1 (stereo partly drawn) [I-58, 3-(5-(((1S,2S)-2-(benzylamino)cycloheptyl)oxy)-1-oxoisoindolin-2-yl)piperidine-2,6-dione] |  | 75
9 | CCN(CC)[C@H]1CCCCC[C@@H]1Oc1ccc2c(c1)CN(C1CCC(=O)NC1=O)C2=O (stereo partly drawn) [I-59, 3-(5-(((1S,2S)-2-(diethylamino)cycloheptyl)oxy)-1-oxoisoindolin-2-yl)piperidine-2,6-dione] |  | 39
10 | COC1(C)CCN([C@H]2CCCCC[C@@H]2Oc2ccc3c(c2)CN(C2CCC(=O)NC2=O)C3=O)CC1 (stereo partly drawn) [I-60, 3-(5-(((1S,2S)-2-(4-methoxy-4-methylpiperidin-1-yl)cycloheptyl)oxy)-1-oxoisoindolin-2-yl)piperidine-2,6-dione] | 61 | 
11 | CC(C)CN[C@H]1CCCCC[C@@H]1Oc1ccc2c(c1)CN(C1CCC(=O)NC1=O)C2=O (stereo partly drawn) [I-61, 3-(5-(((1S,2S)-2-(isobutylamino)cycloheptyl)oxy)-1-oxoisoindolin-2-yl)piperidine-2,6-dione] | 84 | 
12 | CCCN[C@H]1CCCCC[C@@H]1Oc1ccc2c(c1)CN(C1CCC(=O)NC1=O)C2=O (stereo partly drawn) [I-62, 3-(1-oxo-5-(((1S,2S)-2-(propylamino)cycloheptyl)oxy)isoindolin-2-yl)piperidine-2,6-dione] | 88 | 
13 | O=C1CCC(N2Cc3cc(O[C@H]4CCCCC[C@@H]4N4CC5(COC5)C4)ccc3C2=O)C(=O)N1 (stereo partly drawn) [I-63, 3-(5-(((1S,2S)-2-(2-oxa-6-azaspiro[3.3]heptan-6-yl)cycloheptyl)oxy)-1-oxoisoindolin-2-yl)piperidine-2,6-dione] | 85 | 
